In patent US7888042B2, “Methods for identifying insulin mimetics” (Ohio University, priority 2005, dated 2011) one finds Akt phosphorylation, IC50 and blood glucose levels data, which are given here for one molecule.

The subject of one assay is Akt. The experiment in a line: Akt phosphorylation, Western blot. It is filed as cell-based. Conditions: 3T3-L1 adipocytes, 20 or 40 μM, 15 min. On the procedure:
(A) Glucose transport was measured by determining [^3H]-2-deoxyglucose uptake stimulated by either insulin or α-PGG in 3T3-L1 cells in the presence or absence of HNMPA-(AM)3, an inhibitor of IR tyrosine kinase activity (24); wortmannin, an inhibitor of PI 3-kinase (25), or cytochalasin B, an inhibitor of GLUT4 (26), (n=4, mean±SD). (B) Cells were induced by 20 or 40 μM α-PGG or 100 nM insulin for 15 min. Cell lysates were separated by PAGE and analyzed for phosphorylation of IR (in CHO-IR cells) or Akt (in adipocytes) using antibodies specific to the target proteins. (C) Cells were treated with α-PGG and insulin in a fashion similar to (B) and assayed for their respective PI-3 kinase activity with a radioactive TLC method (27). (D) In similar experiments, intact cells were analyzed by confocal microscopy for translocation of GLUT4 using anti-GLUT4 antibodies.
Protein phosphorylation/activation and GLUT4 translocation. To investigate signal transduction induced by α-PGG, proteins from 3T3-L1 adipocytes or CHO-IR cells (23), which were treated with α-PGG or insulin for 15 min, were isolated, separated by PAGE, blotted on nylon membranes, and analyzed by Western blotting with antibodies against either IR or Akt. […]

Assay [1] concerns the target T1, IR isolated from CHO-IR cells (Homo sapiens, UniProt P06213).
T1 construct: expressed in transfected cells; host or cells: CHO-IR cells (from Dr. Alan Saltiel's lab)
Nature of the assay: 125I-insulin displacement assay in WGA-coated wells. It is filed as binding. The note with it: 1 nM 125I-labeled insulin; read-out: IC50 for displacement of IR-bound radioactive insulin. On the procedure: (A) α-PGG binds to IR as measured by a SPR (28). Increasing concentrations of α-PGG was injected into the system to interact with the pure IR attached to the gold surface of the biosensor chip. The binding, represented in arbitrary response units, was automatically plotted against α-PGG concentrations to generate the binding curve. (B) Insulin binding to IR in the absence or presence of α-PGG. Increasing amounts of ^125I-labeled insulin were added to WGA-coated wells containing pre-bound IR isolated from CHO-IR cells in the absence of α-PGG or in the presence of 30 μM or 50 μM of α-PGG. After overnight incubation, removal of excessive ligands, and washing, the bound radioactive insulin was measured. (C) Insulin displacement by α-PGG. Fixed amounts of radioactive insulin (1 nM) were added to each of the WGA-coated wells pre-bound with IR. Increasing amounts of α-PGG were added to the wells to displace the ^125I-labeled insulin. […]
Insulin receptor binding studies. […] After sensograms of α-PGG-IR binding at different concentrations were recorded, the binding affinity was analyzed using BIAevaluation software. […] The bound ligand was detached (eluted) from the receptor with 2×200 μL 0.2M Glycine pH 2.8, and measured for its radioactivity using a Beckman Coulter LS 6400 Multi-Purpose Scintillation Counter. […] The receptor binding results were analyzed with the software GraphPad Prism.

The subject of the next assay is ob/ob mice. Nature of the assay: Blood glucose in ob/ob mice, ip injection. It is filed as in vivo. Conditions: ip 20 mg/kg on day 0 and day 4, P<0.001. On the procedure:
Either 6-8 week old male db/db mice or 8-12 week old male ob/ob mice were treated with aqueous solutions of α-PGG by either oral delivery (˜10 μL, A & B) or ip injection (˜50 μL, C, & D). (n=8-10, mean±SD, one-way ANOVA). α-PGG (●); vehicle (∘). α-PGG (20 mg/kg) was orally delivered without glucose to fasting db/db mice (A *, P<0.02; **, P<0.01; ***, P<0.001) or with glucose (0.4 g/kg body weight) to fasting ob/ob mice (B, glucose tolerance test). α-PGG (20 mg/kg) was ip injected into ob/ob mice on day 0 and day 4 (C). A single ip injection (20 mg/kg) of α-PGG was administered to ob/ob mice (D). Glucose (A, B, C) or insulin (D) was determined from sera or plasma isolated from tail vein blood. Animal studies. Genetically diabetic db/db mice or obese ob/ob mice were purchased from Jackson Lab. Male mice of 2-3 months of age were used. Unless otherwise stated, 10 mice (N=10) were used per group. α-PGG was either orally administered or intraperitoneally (ip) injected in the form of an aqueous solution at 20 mg/kg body weight with a 1-cc sterile plastic syringe. At different times after the α-PGG administration, blood or plasma was collected from the tail vein for measurement of glucose and insulin concentrations using commercial kits. Vehicle (aqueous solution) treated mice were used as controls and were statistically compared with the α-PGG treated mice. […]

T1 sequence (P06213 28-758 limits assumed): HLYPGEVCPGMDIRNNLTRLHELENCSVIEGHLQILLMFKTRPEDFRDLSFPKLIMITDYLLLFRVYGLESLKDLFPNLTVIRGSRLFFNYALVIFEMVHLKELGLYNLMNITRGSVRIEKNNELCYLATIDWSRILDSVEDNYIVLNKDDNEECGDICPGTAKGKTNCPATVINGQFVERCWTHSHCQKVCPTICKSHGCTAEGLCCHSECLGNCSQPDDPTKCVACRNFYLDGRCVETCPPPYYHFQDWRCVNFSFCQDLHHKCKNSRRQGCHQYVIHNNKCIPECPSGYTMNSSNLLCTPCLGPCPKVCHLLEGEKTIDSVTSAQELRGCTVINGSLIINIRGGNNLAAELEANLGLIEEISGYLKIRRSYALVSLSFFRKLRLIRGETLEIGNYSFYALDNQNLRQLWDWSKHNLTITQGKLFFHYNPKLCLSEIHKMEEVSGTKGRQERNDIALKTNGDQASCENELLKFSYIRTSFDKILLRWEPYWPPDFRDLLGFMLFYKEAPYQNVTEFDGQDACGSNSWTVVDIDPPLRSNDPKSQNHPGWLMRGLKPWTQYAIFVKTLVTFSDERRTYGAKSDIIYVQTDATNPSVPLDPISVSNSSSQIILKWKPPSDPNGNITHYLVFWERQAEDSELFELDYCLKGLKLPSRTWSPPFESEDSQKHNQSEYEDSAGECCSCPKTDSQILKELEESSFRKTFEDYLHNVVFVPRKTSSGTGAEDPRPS
T1 sequence (P06213 763-1382 partner limits assumed): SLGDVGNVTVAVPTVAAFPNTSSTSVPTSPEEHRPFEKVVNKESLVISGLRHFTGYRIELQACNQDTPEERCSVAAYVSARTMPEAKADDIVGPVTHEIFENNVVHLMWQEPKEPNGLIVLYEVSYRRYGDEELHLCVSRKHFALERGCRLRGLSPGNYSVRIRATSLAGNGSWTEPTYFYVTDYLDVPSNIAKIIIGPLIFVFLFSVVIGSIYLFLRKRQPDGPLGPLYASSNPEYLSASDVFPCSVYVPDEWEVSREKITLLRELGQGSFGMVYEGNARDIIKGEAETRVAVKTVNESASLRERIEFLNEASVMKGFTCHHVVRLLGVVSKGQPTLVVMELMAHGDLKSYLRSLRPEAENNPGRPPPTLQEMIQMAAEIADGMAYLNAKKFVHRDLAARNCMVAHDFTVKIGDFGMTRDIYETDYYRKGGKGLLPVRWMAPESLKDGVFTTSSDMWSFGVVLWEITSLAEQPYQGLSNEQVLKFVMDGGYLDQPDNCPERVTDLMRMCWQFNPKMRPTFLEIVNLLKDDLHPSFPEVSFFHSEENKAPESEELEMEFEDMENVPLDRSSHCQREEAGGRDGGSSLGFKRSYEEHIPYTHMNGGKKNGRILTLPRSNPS

On to `O=C(OC[C@H]1O[C@H](OC(=O)c2cc(O)c(O)c(O)c2)[C@H](OC(=O)c2cc(O)c(O)c(O)c2)[C@@H](OC(=O)c2cc(O)c(O)c(O)c2)[C@@H]1OC(=O)c1cc(O)c(O)c(O)c1)c1cc(O)c(O)c(O)c1` [α-PGG, alpha 1,2,3,4,6-penta-O-galloyl-D-Glucopyranose], for which, in the assay on Akt, the Akt phosphorylation entry was “phosphorylated in 3T3-L1 adipocytes in a dose-dependent fashion”. For the same molecule, in assay [1], the IC50 was 10 ± 1 µM. In addition, in the assay with ob/ob mice, the blood glucose levels result is “significantly and consistently lowered”.
